Measurements reported in ChEMBL document CHEMBL1150894, “Three new manzamine congeners from amphimedon sponge” (J Nat Prod, 1998).
≈ marks a conversion by molar mass, not a printed value.

How the values were obtained:
L1210 = test: Cytotoxicity against mouse L1210 cells; type: functional, cell-based
Corynebacterium xerosis = test: Antibacterial activity against Corynebacterium xerosis; type: functional
Micrococcus luteus = test: Antibacterial activity against Sarcina lutea; type: functional

Structure (SMILES) | IC50 (L1210) [µg/mL] | MIC (Corynebacterium xerosis) [µg/mL] | MIC (Micrococcus luteus) [µg/mL]
O[C@]12C=C(C3=NCCc4c3[nH]c3ccccc43)[C@@H]3CCN(CC/C=C\CCCC1)C[C@@]31CC/C=C\CCCCN[C@H]12 | 0.5 (≈ 0.904 µM) | 12.5 (≈ 22.6 µM) | 12.5 (≈ 22.6 µM)
O[C@]12C=C(c3nccc4c3[nH]c3ccccc34)[C@@H]3CCN(CCCC/C=C\CC1)C[C@@]31C[C@@H]3/C=C\CCCCN3[C@H]12 [MANZAMINE A] | 1.4 (≈ 2.55 µM) | 5.7 (≈ 10.4 µM) | 2.3 (≈ 4.19 µM)
